Laboratory results reported in patent US20140178305A1, “IDENTIFICATION AND USE OF ANXIOLYTIC COMPOUNDS” (CALIFORNIA INSTITUTE OF TECHNOLOGY, priority 2012, published 2014).

Assays:
MRGPRB4+ fibres = assay: Two-photon in vivo calcium imaging (GCaMP3.0) of central afferent fibres through a spinal cord laminectomy, chemical stimuli; parameters: species or system mouse
Procedure: (§1) Mice expressing reporters and/or Cre recombinase targeted to the MrgprB4 locus were generated by homologous recombination in embryonic stem cells, according to standard procedures. Heterozygous neonates from MrgprD-Cre and MrgprB4-Cre mice were injected intraperitoneally with Cre-dependent AAV8 viruses expressing GCaMP3.0 or mGCaMP3.0 or hM3(Gq-coupled) DREADD, and imaged as adults (≧8 weeks old).
(§2) Electrophysiology experiments on ex vivo skin-nerve preparations from adult heterozygous Mrgprb4-EGFPf reporter mice were performed as described in Woodbury, et al. J. Comp. Neurol. 436, 304-323 (2001). For calcium imaging, after a dorsal laminectomy the spinal column was stabilized and filled with imaging solution (see below for details). Imaging was performed using a two-photon laser-scanning microscope (Ultima, Prairie Inc.) using an Olympus 40×0.8 N.A. water immersion objective, at 128×128 pixel resolution with an acquisition rate of 8-12 frames per second. Mechanical stimuli were delivered using a custom-modified No. 5 sable paint brush or serrated forceps, in a manner electronically time-stamped to image acquisition, as may be seen in FIGS. 18A-18C and further discussed below. Stimuli were delivered to each mouse in a series of trials, separated by a few minutes; each trial consisted of one or more stimuli delivered typically at intervals of several seconds. Chemical stimuli were delivered to the spinal cord using a Pipetman pipette and to the periphery using a syringe pump. Calcium responses were analysed using custom software written in Matlab (see below for more details). For calculating ΔF/F [(Fav−F0)/F0], F0 is the average of the first ten frames of the recording period.
(§3) Mice 2 months or older were sedated by i.p. injection of a mix of ketamine (100 mg/kg), xylazine (15 mg/kg), acepromazine (2.5 mg/kg in 0.9% NaCl). During surgery, body temperature was maintained at 37° C. with a heating blanket.
(§4) A dorsal laminectomy was performed mostly at spinal level L2-L4 (but occasionally at L1-L3) as described in Johannssen, et al. J. Physiol. (Lond.) 588:3397-3402 (2010), but without removing the dura. The spinal column was stabilized using Narishige STS-A spinal clamps. In addition a head-holding adaptor from Kopf (923-B Mouse Gas Anaesthesia Head Holder) was used that has installed an anaesthesia/gas mask for positioning the mouse head. In this apparatus the gas is applied through a standard hose barb positioned above the nose on the mask. The inlet fills a large gas chamber around the snout, a second hose barb below the mask is provided for vacuuming off excess, expelled gasses. The animals were maintained under continuous anaesthesia for the duration of the imaging experiments with 1-2% isofluorane or with hourly injections of the above ketamine mix. A well was built around the exposed spinal cord using Gelseal (Amersham Biosciences Corp) and Kwik Sil Adhesive (WPI). Warm imaging solution (in mM: 130 NaCl, 3 KCl, 2.5 CaCl2, 0.6 6H2O.MgCl2, 10 HEPES without Na, 1.2 NaHCO3, 10 glucose, pH7.45 with NaOH) (37° C.) was repeatedly applied to prevent drying and maintain tissue integrity, and to allow the use of immersion objectives. During imaging the body temperature of the animals was maintained at 37° C. with a heating blanket and an air-therm heater (WPI) placed inside the microscope area.
(§5) Imaging experiments were performed under a two-photon laser-scanning microscope (Ultima, Prairie Instruments Inc.). Live images were acquired at 8-12 frames per second, at depths below the pia ranging from 100 to 250 μm, using an Olympus 40×0.8 N.A. water immersion objective, at 128×128 pixel resolution with a laser tuned to 940 nm wavelength, and emission filters 525/50 nm and 595/50 nm for green and red fluorescence, respectively. Laser power was adjusted to be 20-25 mW at the focal plane (maximally 35 mW), depending on the imaging depth and level of expression of GCaMP3.0. […]

MRGPRD+ fibres = assay: as above; parameters: species or system mouse
Procedure: as §1, §2, §3, §4, §5

[1] = test system: MRGPRB4+ neurons engineered to express TRPV1; assay: Calcium imaging after peripheral injection of capsaicin in MrgprB4-Cre; Rosa26-loxP-STOP-loxP-TrpV1 mice; format: in vivo, mouse; conditions: adult MrgprB4-Cre, peripheral injection (10 μl of 1 mM)
Procedure: α,β-methyl ATP (10 μl from 1 mM solution) and capsaicin (10 μl from 1 mM solution (10% DMSO in saline)) was injected in the ventral and dorsal hindpaw of MrgprD and MrgprB4 mice, respectively, using a syringe pump (WPI, Inc., sp200i syringe pump). The timing of the injection was controlled by the two-photon image acquisition system and associated software (Prairie View and Trigger Sync, Prairie Technologies) to link it with image acquisition.
In the case of chemical stimulation (delivered either to the spinal cord or to the periphery), typically a single trial was performed for a given mouse, due to the difficulty of maintaining the same focal plane during the period of application of the chemical to the spinal cord or the period required for diffusion of the liquid bolus delivered for peripheral injection, respectively. In these cases, therefore, the MPI ΔF/Fpeak before and during the stimulation period were calculated for multiple mice imaged using ROIs of similar size, and were compared for statistical significance (relative to pre-stimulus baseline) by repeated measures ANOVA, followed by Bonferroni-corrected post-hoc comparison of means (unless stated otherwise). The ΔF/F values in FIGS. 11B and 11E were corrected for photobleaching as described in Berry, et al. Neuron 74:530-542 (2012). […]

[2] = direct application to the spinal cord, KCl 60 mM, n=3
[3] = injection into the dorsal (hairy) skin of the hindpaw (10 μl of 1 mM), n=3
[4] = injection into the glabrous skin of the hind paw (10 μl of 1 mM), n=3
[5] = spinal application, 5 mM, mean ± range, n=2

SMILES: [Cl-].[K+] [KCl]
- activation of fibres after application to the spinal cord (positive control) (MRGPRB4+ fibres; KCl, same field of view as the CNO test in GCaMP3.0-only mice): robust activation
- mean latency to peak (MLP) (MRGPRB4+ fibres; [2]): 9.3 ± 4.15 s
- mean percent increase in peak ΔF/F (MPI ΔF/Fpeak) (MRGPRB4+ fibres; [2]): 201.6±33.2%
- mean percent increase in peak ΔF/F (MPI ΔF/Fpeak) (MRGPRD+ fibres; direct application to the spinal cord, KCl 60 mM, mean ± s.e.m., n=3): 222±19%
- mean latency to peak (MLP) (MRGPRD+ fibres; [2]): 8.6 ± 3.6 s

SMILES: COc1cc(CNC(=O)CCCC/C=C/C(C)C)ccc1O [capsaicin]
- calcium transients evoked by peripheral injection (MRGPRB4+ fibres; control MrgprB4-Cre mice without TRPV1, peripheral injection): no such signals were observed
- calcium transients evoked by peripheral injection [1]: induced robust calcium transients

SMILES: Nc1ncnc2c1ncn2[C@@H]1O[C@H](COP(=O)(O)CP(=O)(O)OP(=O)(O)O)[C@@H](O)[C@H]1O [α,β Me-ATP, α,β-methylene (Me) ATP]
- MLP (MRGPRB4+ fibres; [3]): 21.9 ± 12.6 s
- MPI [ΔF/F]peak (MRGPRB4+ fibres; [3]): 142±0.6%
- calcium transients evoked by peripheral injection (MRGPRB4+ fibres; mice expressing GCaMP3.0 but not TRPV1 in MrgprB4+ neurons, FIG. 8F): exhibit calcium transients
- calcium response after application to the spinal cord (MRGPRD+ fibres; MrgD mice, FIG. 7E): induced a strong calcium response
- MLP (MRGPRD+ fibres; [4]): 25.7 ± 10.5 s
- MPI [ΔF/F]peak (MRGPRD+ fibres; [4]): 137±51%
- MLP (MRGPRD+ fibres; [5]): 16.3±1.3
- MPI [ΔF/F]peak (MRGPRD+ fibres; [5]): 249±54%
